Experimental data published in publication PMC9781916, “Antipsychotic- and Anxiolytic-like Properties of a Multimodal Compound JJGW08 in Rodents” (International Journal of Molecular Sciences, 2022).

Assays:
mice [1] = test: MK-801-induced hyperlocomotion test in mice; assay type: in vivo; settings: doses 0.15–2.5 mg/kg ip, MK-801 0.2 mg/kg ip
Protocol: Locomotor activity was recorded in actometers separately for each mouse. After 30 min of adaptation, the number of crossings of photo beams was measured during 60 min. […] MK-801 (0.2 mg/kg, ip) was administered 15 min before the experiment, while amphetamine (2.5 mg/kg) was administered subcutaneously (sc) 30 min before the experiment. […] Values are expressed as means ± SD, n = 8–10 mice per group. Statistical analysis: one-way ANOVA (Newman–Keuls post hoc), * p < 0.05, ** p < 0.01, *** p < 0.001.
The test was performed according to the method described by Carlsson et al.. The mobility of the animals was measured in actometers, i.e., in plastic Opto M3 cages (22 × 12 × 13 cm) connected to a computer with MultiDevice Software v.1.30 (Columbus Instruments, Columbus, OH, USA). The experimental cages were equipped with infrared sources on one side and sensors receiving the emitted rays on the other side of the cage. The crossing of each beam of infrared rays was classified as motor activity. The animals were placed individually in experimental cages immediately after administration of the tested compound, 30 min before the start of the test, to adapt to the new conditions and exclude the occurrence of hyperactivity caused by the change of the environment. Spontaneous locomotor activity was measured every 5 min for 60 min. Mice received two injections: of the tested compound or reference substance (30 min before the test, ip) and of amphetamine (2.5 mg/kg, 30 min before the test, sc) or MK-801 (0.2 mg/kg, 15 min before the test, ip). Control groups received an injection of saline and amphetamine or MK-801, or two injections of saline, respectively. Olanzapine was used as a reference compound.

mice [2] = test: Catalepsy bar test in mice; assay type: in vivo
Protocol: Catalepsy was assessed using the bar method described by Ueki et al. with minor modifications [48, 49]. The front paws of the mice were placed on a cylindrical metal bar located 4 cm above the tabletop’s surface, while the hind paws remained on the tabletop. The time in which the animal held both paws on the bar was measured at 30, 60, and 120 min after the administration of the tested compound, with a maximum measurement time of 60 s. Each of the measurements consisted of placing the animal’s paws on the bar three times unless the mouse was on it for 60 s; then, no further trial was performed.
The minimum cataleptogenic dose was defined as the lowest dose inducing a mean catalepsy score of ≥1 at 30, 60, or 120 min post-treatment. The tested compound was administered ip at the dose range of 5–20 mg/kg.

mice [3] = test: Spontaneous locomotor activity in mice; assay type: in vivo
Protocol: The locomotor activity of mice was measured as previously described using the same apparatus as described in paragraph 4.5. Each mouse was placed individually in a cage for a 30 min habituation period (directly after administration of the studied compound), and then the number of photobeams crossings was recorded (ambulation). Locomotor activity was evaluated every 1 or 5 min for 1–60 min depending on the observation period in behavioral tests (60 min for the hyperlocomotion test, 30 min for the marble burying test, and 1 min for the four-plate test). The cages were disinfected with an odorless disinfection solution after each mouse.

rats = test: Open field test after MK-801 administration in rats (MK-801-induced hyperlocomotion); assay type: in vivo; settings: doses 1–30 mg/kg ip, MK-801 0.3 mg/kg ip
Protocol: Figure 4 The effect of JJGW08 and clozapine on MK-801-induced hyperlocomotion in rats. After the habituation period (30 min, 24 h before the test), locomotor activity was measured individually for each animal in the special apparatus. The walked distance (cm) was monitored at 10-min intervals for 30 min, using a computerized system that tracked the animals’ movement and behavior. JJGW08 and clozapine were administered intraperitoneally (ip) 30 or 60 min before the test, respectively, while MK-801 (0.3 mg/kg) was administered ip 15 min before the start of the experiment. The control group received 0.9% NaCl solution (ip) (or 1% Tween (ip) for clozapine) and MK-801 (0.3 mg/kg, ip). Values are expressed as mean ± SD, n = 7–8 rats per group. Statistical analysis: one-way ANOVA (Newman–Keuls post hoc) * p < 0.05, ** p < 0.01, *** p < 0.001.
The experiment was evaluated according to the method described earlier. It was performed in a soundproof chamber with a 30-min habituation period 24 h before the procedure. The open field apparatus consisted of four black, octagonal, stainless steel arenas (diameter: 80 cm) with 30 cm high walls. Each arena was divided into a peripheral and central sector. The peripheral sector was defined as the region within 20 cm from the walls. The approximate light intensity was 15 lx in the central point of the arena and 4 lx close to its walls.
Individual rats were placed in the central part of the open field and allowed to explore the whole arena for 30 min under dim light (approximately 10 lx) and continuous white noise (65 dB). Forward locomotion (cm/30 min) was registered in 10-min intervals for 30 min and analyzed with the aid of a computerized video tracking system (Videomot, TSE, Bad Homburg, Germany). The arenas were cleaned between tests with 20% (v/v) alcohol and allowed to dry.
The tested compound was administered ip 30 min before the experiment at the dose range of 0.3–30.0 mg/kg, and MK-801 (0.3 mg/kg,) was administered ip 15 min before the procedure. […]

5-HT1A receptors = system: 5-HT1A receptors; parameters: method as in doi:10.1016/j.molstruc.2022.134585; settings: cited from earlier work
5-HT2A receptors = system: 5-HT2A receptors; parameters: method as in doi:10.1016/j.molstruc.2022.134585; settings: cited from earlier work

COc1ccccc1N1CCN(CCCCCOc2ccccc2C(N)=O)CC1.Cl [JJGW08, 2-{5-[4-(2-metoksyfenylo)piperazin-1-ylo]pentoxy}benzamide hydrochloride]
reduction of MK-801-induced hyperactivity (mice [1]): 24–71%
Mean Score (catalepsy) (mice [2]; 5 mg/kg ip, 30 min): 0.0
Mean Score (catalepsy) (mice [2]; 5 mg/kg ip, 60 min): 0.2
Mean Score (catalepsy) (mice [2]; 5 mg/kg ip, 120 min): 0.2
Mean Score (catalepsy) (mice [2]; 10 mg/kg ip, 30 min): 0.7
Mean Score (catalepsy) (mice [2]; 10 mg/kg ip, 60 min): 0.9
Mean Score (catalepsy) (mice [2]; 10 mg/kg ip, 120 min): 1.4
cataleptogenic dose relative to the lowest antipsychotic-like dose (mice [2]; 10 mg/kg vs. 0.15 mg/kg): 67 fold
Mean Score (catalepsy) (mice [2]; 20 mg/kg ip, 30 min): 2.1
Mean Score (catalepsy) (mice [2]; 20 mg/kg ip, 60 min): 2.1
Mean Score (catalepsy) (mice [2]; 20 mg/kg ip, 120 min): 1.5
minimum (lowest) cataleptogenic dose (mice [2]; ip, lowest dose with mean catalepsy score ≥1 at 30, 60 or 120 min): 10 mg/kg
Number of Crossings (mice [3]; 0.15 mg/kg ip, 1 min session): 38
Number of Crossings (mice [3]; 0.15 mg/kg ip, 30 min session): 547
Number of Crossings (mice [3]; 0.15 mg/kg ip, 60 min session): 1346
Number of Crossings (mice [3]; 0.3 mg/kg ip, 1 min session): 46
Number of Crossings (mice [3]; 0.3 mg/kg ip, 30 min session): 1027
Number of Crossings (mice [3]; 0.3 mg/kg ip, 60 min session): 1588
Number of Crossings (mice [3]; 0.625 mg/kg ip, 1 min session): 27
Number of Crossings (mice [3]; 0.625 mg/kg ip, 30 min session): 634
Number of Crossings (mice [3]; 0.625 mg/kg ip, 60 min session): 1671
Number of Crossings (mice [3]; 1.25 mg/kg ip, 1 min session): 22
Number of Crossings (mice [3]; 1.25 mg/kg ip, 30 min session): 1181
Number of Crossings (mice [3]; 1.25 mg/kg ip, 60 min session): 1769
Number of Crossings (mice [3]; 2.5 mg/kg ip, 1 min session): 19
Number of Crossings (mice [3]; 2.5 mg/kg ip, 30 min session): 437
Number of Crossings (mice [3]; 2.5 mg/kg ip, 60 min session): 1450
effect on locomotor activity (in words) (mice [3]; 0.15–2.5 mg/kg ip, 60-min and 30-min sessions): did not affect locomotor activity
reduction of MK-801-induced hyperlocomotion in the open field (rats): 36–82%
affinity (in words) (5-HT1A receptors): high affinity
affinity (in words) (5-HT2A receptors): moderate affinity
